Columns and labels:
[1] = tested on: MRSA biofilm; test: Biofilm inhibition assay, crystal violet; assay type: cell-based, Methicillin-resistant Staphylococcus aureus
Description: Plates were placed in a static incubator at 37 °C for 48 h; the time required for untreated wells to form biofilm. After incubation, treated media was removed and wells were rinsed with 155 µL of PBS to remove planktonic cells. After sufficient air drying of wells, 150 µL of 0.1% Crystal violet stain was added to each well and incubated at room temperature for 30 min, after which, dye was removed and wells were rinsed again with 155 µL of PBS. After sufficient drying of wells, 150 µL of 70% ethanol solution was added to each well and incubated at room temperature for 30 min. After 30 min, 100 µL of each well was added to a new 96-well plate and absorbance was measured at an OD of 590 nm.

[2] = 25% porcine intestinal fluid (pH 6.5) in PBS, 1 mg/mL peptide, 1 h 37 °C with shaking; residual activity vs E. coli at 20 µg/mL, colony count; three independent experiments
Description: Porcine digestive fluids were collected, as previously described by Wang et al. [44]. […] The gastrointestinal tract was kept at 4 °C during dissection, and collection of contents from the stomach and upper small intestine (duodenum and jejunum) was conducted within 5 h of sacrifice. Contents were centrifuged at 10,000 rpm (9600× g) for 10 min at 4 °C, and supernatant fluid was collected and stored at −80 °C until its use in the stability experiment. The pH of the collected supernatants were 3.5 and 6.5 for gastric fluid and duodenum fluid, respectively.
Procedures similar to those used by Egger et al. [45] were used for this experiment. […] Suspension containing no peptide was considered the negative control. After incubation, 10 µL of the incubated solutions was added for a total volume of 0.5 mL, consisting of 20 µL of mid-logarithmic phase E. coli cells, diluted to a concentration of about 1 × 10^5 CFU/mL, and 470 µL of 20 mM sodium phosphate buffer (pH 7). […] Stability in porcine digestive fluid was evaluated as the relative colony growth on plates from bacterial grown with digestive fluid and peptide treatments, in comparison to plates grown from bacteria grown with digestive fluid alone.
Stability was evaluated by comparing the mean growth of colonies on plates treated with peptides incubated in digestive fluids to colonies grown when treated without peptide. […]

[3] = tested on: IPEC-J2 cells; test: In vitro cell migration, transwell assay; assay type: cell-based, porcine; details: transwell 8-micron, serum-free DMEM F-12, 5 to 20 µg/mL, 16 h, Hoechst 33342 count; SynPG-1 not significant at higher concentrations
Description: A cell line, established from intestinal porcine enterocytes, isolated from the jejunum of a neonatal unsuckled piglet (IPEC-J2 cells, DSMZ), was grown in monolayer culture in Dulbecco’s modified Eagle’s medium (high glucose), supplemented with 10% fetal bovine serum (FBS) from Invitrogen, 100 IU/mL penicillin, and 100 µg/mL streptomycin. Cultures were maintained in a 5% CO2 humidified atmosphere at 37 °C and passaged every 2–3 days, with detachment via the Trypsin-EDTA solution (Sigma).
To evaluate migration of IPEC-J2 cells, 8-micron pore-sized cell culture transwell inserts were used (Millipore Inc, Temecula, CA, USA). A total of 1 × 10^5 cells were plated in the upper inserts of the transwell and placed within 24-well plates, containing serum-free DMEM F-12 in the absence and presence of SynPG-1 or PG-1, at concentrations ranging from 5 µg/mL to 20 µg/mL. After incubation for 16 h, the cells were fixed with 4% (w/v) paraformaldehyde. […] Migration was quantified by cell enumeration through Hoechst 33342 staining of cell nuclei (Thermo Fisher Scientific, Mississauga, ON, Canada). The results are represented as the relative fold increase in migrated cells when compared to the baseline migration of IPEC-J2 cells in serum-free media after 16 h.

[4] = tested on: MRSA; assay type: cell-based, Methicillin-resistant Staphylococcus aureus; details: 2 h, pH 7
Description: (§1) Veterinary clinical isolates, including Salmonella typhimurium, multi-drug resistant Escherichia coli, methicillin-resistant Staphylococcus aureus (MRSA), and methicillin-resistant Staphylococcus pseudointermedius (MRSP), were kindly provided by Dr. H. Cai (Department of Pathobiology, University of Guelph, ON, Canada). An antibiogram for these strains is available in the supplementary text (Table S1). Gram-negative strains were cultured in Luria−Bertani (LB) broth. Gram-positive strains were cultured in Tryptic soy broth (TSB). Both cultures were grown under aerobic conditions at 37 °C.
(§2) The minimum bactericidal concentration (MBC) of SynPG-1 against the tested pathogens was identified through a broth macrodilution antimicrobial assay as previously described, with some modification. […] The buffer volume was adjusted to accommodate the addition of SynPG-1 and PG-1 so that the final solution volume was 0.5 mL for each tested concentration. Final peptide concentrations ranged from 0.1 µg/mL to 8 µg/mL. PG-1 at the known MBC (2 µg/mL E. coli; 4 µg/mL S. typhimurium; 0.5 µg/mL MRSP; 0.5 µg/mL MRSA) was considered the in-house positive control, while the suspension containing no peptide was considered the negative control. Experimental and control tubes were incubated for 2 h at 37 °C without shaking to allow for bactericidal action to occur. […] Colony numbers from each plate were recorded. […]

[5] = tested on: pre-formed S. typhimurium biofilm; test: Pre-formed biofilm destruction assay, crystal violet; assay type: cell-based, Salmonella typhimurium; details: 64 µg/mL, 3 h treatment, crystal violet
Description: To test the destruction of preformed biofilms, in a 96-well plate, 15 µL of overnight culture, of either E. coli, S. typhimurium, or MRSA, was added to 150 µL of minimal salt media (40 mM […]; 22 mM KH2PO4; […] NH4CL; 740 mM NaCl; 2 mM MgSO4; 0.1 mM CaCl2; 22 mM supplemented with D-Glucose) in each well. Plates were placed in a static incubator at 37 °C for 48 h; the time required for untreated wells to form biofilm. After formation, minimal salt media was removed and wells were treated with 155 µL of minimal salt media containing PG-1 or SynPG-1. […] Plates were placed in a static incubator at 37 °C for 3 h. After 3 h, treated media was removed and wells were rinsed with 155 µL of PBS to remove planktonic cells. After sufficient drying of wells, 150 µL of 0.1% crystal violet stain was added to each well and incubated at room temperature for 30 min, after which dye was removed and wells were rinsed again with 155 µL of PBS. After sufficient drying of wells, 150 µL of 70% ethanol solution was added to each well and incubated at room temperature for 30 min. After 30 min, 100 µL of each well was added to a new 96-well plate and absorbance was measured at an OD of 590 nm.

[6] = tested on: A. baumanni biofilm; details: tested alone or with an antibiotic; reduction in crystal violet staining only; cited from earlier work
From the text: Although many have studied the antimicrobial potential of PG-1, its anti-biofilm properties have only been tested against a few species, including Streptococcus mutans and Acinetobacter baumanni. Since the composition of the extracellular polymeric substance (EPS) of a biofilm can vary widely from species to species, further investigation into the PG-1′s spectrum of antibiofilm activity is necessary. To do so, we evaluated the effect of PG-1 and SynPG-1 on the disruption and formation of biofilms from three pathogenic MDR bacteria and measured the remaining viable pathogens. ...

[7] = tested on: MRSP; assay type: cell-based, Methicillin-resistant Staphylococcus pseudointermedius; details: 2 h, pH 7
Description: as §1, §2

Question: For CC(C)C[C@H](NC(=O)[C@H](CCCNC(=N)N)NC(=O)CNC(=O)CNC(=O)[C@@H](N)CCCNC(=N)N)C(=O)N[C@H]1CSSC[C@@H](C(=O)N[C@H](C(=O)NCC(=O)N[C@@H](CCCNC(=N)N)C(N)=O)C(C)C)NC(=O)[C@H](C(C)C)NC(=O)[C@@H]2CSSC[C@H](NC(=O)[C@H](Cc3ccc(O)cc3)NC1=O)C(=O)N[C@@H](CCCNC(=N)N)C(=O)N[C@@H](CCCNC(=N)N)C(=O)N[C@@H](CCCNC(=N)N)C(=O)N[C@@H](Cc1ccccc1)C(=O)N2 [PG-1, Protegrin-1], which “Concentration at which inhibition of biofilm formation was seen” value ([1]; minimal salt media, 48 h 37 °C static, crystal violet OD 590 nm, p < 0.05 vs control, concentration dependent) is on record?
Answer: 8 µg/mL

Question: What about the “Effect on biofilm formation at the concentration where SynPG-1 began to reduce it” value ([1]; same concentration as SynPG-1 onset (2 µg/mL), crystal violet, 48 h) of the same molecule?
Answer: significant promotion of biofilm formation

Question: What about the “Antimicrobial activity after incubation in 25% porcine intestinal fluid” value [2] of the same molecule?
Answer: mean % growth of control increased for SynPG-1 but not PG-1

Question: And the “Concentration at which cell migration increased significantly” value [3]?
Answer: 20 µg/mL

Question: What about the MBC [4] of the same molecule?
Answer: 0.5 (0.18) μg/mL

Question: What about the “Effect on pre-formed biofilm at 64 µg/mL” value [5] of the same molecule?
Answer: did not demonstrate a significant reduction

Question: And the Antibiofilm activity [6]?
Answer: no antibiofilm activity

Question: And the MBC [7]?
Answer: 0.5 (0.18) μg/mL
